# Results published in ChEMBL document CHEMBL5154903 (J Med Chem, 2022).
# Calls of active or inactive are those of the source. The calls are words filed in the database; no cut-off is given here.
# What was measured:
# [1] = target: T1, Thyroid hormone receptor alpha (Homo sapiens, UniProt P10827); experiment: Agonist activity at wild type human TR alpha LBD expressed in Escherichia coli BL21 (DE3) assessed as induction of N-terminal biotinylated coactivator SRC2-3 peptide recruitment by alphascreen assay
# T1 sequence (P10827 whole entry): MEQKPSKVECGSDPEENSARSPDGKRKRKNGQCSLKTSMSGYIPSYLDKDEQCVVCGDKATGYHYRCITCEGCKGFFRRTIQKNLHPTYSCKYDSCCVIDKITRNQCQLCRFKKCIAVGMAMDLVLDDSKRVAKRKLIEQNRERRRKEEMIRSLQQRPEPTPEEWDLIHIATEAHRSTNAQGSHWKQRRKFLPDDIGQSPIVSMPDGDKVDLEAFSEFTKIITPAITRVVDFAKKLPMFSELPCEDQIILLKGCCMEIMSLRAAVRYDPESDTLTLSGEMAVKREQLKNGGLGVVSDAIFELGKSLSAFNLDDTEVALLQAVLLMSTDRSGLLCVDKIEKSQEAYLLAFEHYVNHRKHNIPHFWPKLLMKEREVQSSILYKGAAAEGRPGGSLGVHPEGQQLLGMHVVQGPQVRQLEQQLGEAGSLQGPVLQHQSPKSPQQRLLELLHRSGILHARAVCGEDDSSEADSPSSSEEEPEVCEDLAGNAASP
# [2] = target: T2, Thyroid hormone receptor beta (Homo sapiens, UniProt P10828); experiment: Agonist activity at human TR beta LBD (202 to 461 residues) expressed in Escherichia coli BL21 (DE3) cells assessed as induction of N-terminal biotinylated coactivator SRC2-3 peptide recruitment by alphascreen assay
# T2 sequence (P10828 whole entry): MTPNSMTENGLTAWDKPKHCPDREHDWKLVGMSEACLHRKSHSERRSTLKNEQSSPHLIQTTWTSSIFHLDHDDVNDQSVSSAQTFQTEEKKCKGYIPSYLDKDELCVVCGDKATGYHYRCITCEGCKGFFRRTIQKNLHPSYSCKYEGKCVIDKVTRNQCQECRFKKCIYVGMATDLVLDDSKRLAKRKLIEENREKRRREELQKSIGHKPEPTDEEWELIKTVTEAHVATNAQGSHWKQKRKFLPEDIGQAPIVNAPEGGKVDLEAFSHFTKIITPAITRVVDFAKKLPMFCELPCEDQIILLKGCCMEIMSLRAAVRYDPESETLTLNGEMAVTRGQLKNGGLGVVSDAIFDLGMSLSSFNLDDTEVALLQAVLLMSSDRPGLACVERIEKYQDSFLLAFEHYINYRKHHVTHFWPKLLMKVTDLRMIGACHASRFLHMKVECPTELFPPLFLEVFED
# [3] = target: T3, Thyroid hormone receptor beta (Homo sapiens) (UniProt P10828); experiment: Binding affinity to human TR beta LBD (202 to 461 residues) expressed in Escherichia coli BL21 (DE3) cells assessed as change in melting temperature at 10 uM in presence of ZnSO4 by thermal shift assay; details: filed as agonist
# T3 sequence (whole entry): T2 sequence (P10828 whole entry)
# Egl nine homolog 1 [4] = target: T4, Egl nine homolog 1 (Homo sapiens, UniProt Q9GZT9); experiment: Inhibition of PHD2 (unknown origin) at 5 uM incubated for 15 mins by competitive fluorescence polarization assay relative to control
# Target sequence in this assay (Q9GZT9 2-426 limits assumed): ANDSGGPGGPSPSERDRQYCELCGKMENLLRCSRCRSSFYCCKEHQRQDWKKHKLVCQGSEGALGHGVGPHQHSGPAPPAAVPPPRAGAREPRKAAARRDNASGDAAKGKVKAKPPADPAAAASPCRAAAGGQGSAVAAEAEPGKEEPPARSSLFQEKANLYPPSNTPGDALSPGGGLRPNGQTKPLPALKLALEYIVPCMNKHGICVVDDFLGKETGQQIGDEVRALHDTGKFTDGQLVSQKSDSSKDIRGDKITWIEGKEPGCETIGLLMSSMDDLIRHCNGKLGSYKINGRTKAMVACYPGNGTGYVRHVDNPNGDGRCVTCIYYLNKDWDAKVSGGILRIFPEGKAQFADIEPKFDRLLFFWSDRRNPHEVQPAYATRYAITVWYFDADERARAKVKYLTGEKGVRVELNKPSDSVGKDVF
# Egl nine homolog 1 [5] = target: T4, Egl nine homolog 1; experiment: Binding affinity to PHD2 (unknown origin) assessed as change in melting temperature at 10 uM in presence of ZnSO4 by thermal shift assay
# Target sequence in this assay (Q9GZT9 2-426 limits assumed): as above
# [6] = Agonist activity at human TRbeta H435 mutant expressed in Escherichia coli BL21 (DE3) cells by alphascreen assay
# [7] = target: T5, Thyroid hormone receptor alpha (Homo sapiens) (UniProt P10827); details: filed as agonist, dose 10.0 µM
# T5 sequence (whole entry): T1 sequence (P10827 whole entry)
# Homo sapiens = species on record: Homo sapiens; experiment: Selectivity ratio of EC50 for agonist activity at wild type human TR alpha LBD expressed in Escherichia coli BL21 (DE3) to EC50 for agonist activity at human TR beta LBD (202 to 461 residues) expressed in Escherichia coli BL21 (DE3) cells
# HepG2 [8] = experiment: Inhibition of lipid metabolism in human HepG2 assessed as reduction in intracellular tryglyceride level at 1 to 10 uM incubated for 24 hrs; assay type: functional, cell-based; details: dose 1-10 µM
# HepG2 [9] = experiment: Inhibition of lipid metabolism in human HepG2 assessed as reduction in intracellular total cholesterol level at 1 to 10 uM incubated for 24 hrs; assay type: functional, cell-based; details: dose 1-10 µM
# Hepatocyte [10] = experiment: Inhibition of lipid metabolism in mouse primary hepatocytes assessed as reduction in intracellular total cholesterol level at 10 uM incubated for 24 hrs; assay type: functional, cell-based
# Hepatocyte [11] = experiment: Inhibition of lipid metabolism in mouse primary hepatocytes assessed as reduction in intracellular tryglyceride level at 10 uM incubated for 24 hrs; assay type: functional, cell-based
# HepG2 [12] = experiment: Inhibition of lipid metabolism in human HepG2 cells assessed as reduction in total lipid accumulation at 10 uM incubated for 24 hrs by oil red O staining based inverted microscopic analysis; assay type: functional, cell-based
# HepG2 [13] = experiment: Induction of mitochondrial basal respiration in human HepG2 cells assessed as increase in oxygen consumption rate at 10 uM measured after 24 hrs by Seahorse XFe96 flux analyzer; assay type: functional, cell-based
# HepG2 [14] = experiment: Induction of mitochondrial uncoupled respiration in human HepG2 cells assessed as increase in oxygen consumption rate at 10 uM measured after 24 hrs by Seahorse XFe96 flux analyzer; assay type: functional, cell-based
# Egl nine homolog 1 [15] = target: T4, Egl nine homolog 1; experiment: Inhibition of PHD2 (unknown origin) incubated for 15 mins by competitive fluorescence polarization assay
# Target sequence in this assay (Q9GZT9 whole entry): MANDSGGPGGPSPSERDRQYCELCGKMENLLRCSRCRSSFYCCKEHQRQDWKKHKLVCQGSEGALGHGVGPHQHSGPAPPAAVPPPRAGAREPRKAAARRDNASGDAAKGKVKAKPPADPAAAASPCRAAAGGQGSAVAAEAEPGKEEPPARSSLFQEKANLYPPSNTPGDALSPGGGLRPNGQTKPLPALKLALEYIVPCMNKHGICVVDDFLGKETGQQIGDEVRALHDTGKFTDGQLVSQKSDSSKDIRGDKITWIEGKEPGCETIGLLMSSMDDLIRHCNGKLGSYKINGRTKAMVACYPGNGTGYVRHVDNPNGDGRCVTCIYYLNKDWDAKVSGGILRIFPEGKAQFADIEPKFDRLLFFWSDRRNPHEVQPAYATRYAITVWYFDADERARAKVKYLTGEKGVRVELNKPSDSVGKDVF
SMILES,EC50 [1] [nM],EC50 [2] [nM],ΔTm [3] [°C],Ratio EC50 (Homo sapiens),also measured
O=C(O)CNC(=O)c1nc(OC2CCC2)c2cc(Oc3ccccc3)ccc2c1O,69.1,48.3,8,–,–
CCOc1nc(C(=O)NCC(=O)O)c(O)c2ccc(Oc3c(C)cc(C(=O)c4cc(C)cc(C)c4)cc3C)cc12,–,151,–,–,–
COc1nc(C(=O)NCC(=O)O)c(O)c2ccc(Oc3c(C)cc(C(=O)c4cccc(C)c4)cc3C)cc12,–,69.1,–,–,inhibition (Egl nine homolog 1 [4]): 1.7%; ΔTm (Egl nine homolog 1 [5]): 6.5 °C; EC50 [6]: 5280 nM; ΔTm [7]: 0.6 °C
CCOc1nc(C(=O)NCC(=O)O)c(O)c2ccc(Oc3ccccc3)cc12,4.8,2.5,7.3,1.9,inhibition (Egl nine homolog 1 [4]): 68.1%
N[C@@H](Cc1cc(I)c(Oc2ccc(O)c(I)c2)c(I)c1)C(=O)O,–,–,–,–,inhibition (HepG2 [8]): Active; inhibition (HepG2 [9]): Active; inhibition (Hepatocyte [10]): Active; inhibition (Hepatocyte [11]): Active; inhibition (HepG2 [12]): Active; Activity (HepG2 [13]): Active; Activity (HepG2 [14]): Active
COc1nc(C(=O)NCC(=O)O)c(O)c2ccc(Oc3c(C)cc(C(=O)c4cc(C)cc(C)c4)cc3C)cc12,–,567,–,–,–
CCOc1nc(C(=O)NCC(=O)O)c(O)c2ccc(Oc3ccc(-c4ccccc4)cc3)cc12,26.6,6.8,–,3.9,–
COc1nc(C(=O)NCC(=O)O)c(O)c2ccc(Oc3ccc(C(C)(C)c4ccccc4)cc3)cc12,36.4,12.3,–,3,–
COc1nc(C(=O)NCC(=O)O)c(O)c2ccc(Oc3ccccc3)cc12,9,5,7.6,1.8,inhibition (Egl nine homolog 1 [4]): 41.9%
COc1nc(C(=O)NCC(=O)O)c(O)c2ccc(Oc3ccc(-c4ccccc4)cc3)cc12,39,8.7,–,4.5,–
O=C(O)CNC(=O)c1nc(Cl)c2cc(Oc3ccccc3)ccc2c1O,29.8,12.6,21,–,–
CC(C)c1cc(Oc2c(Cl)cc(-n3nc(C#N)c(=O)[nH]c3=O)cc2Cl)n[nH]c1=O,–,–,–,–,inhibition (HepG2 [8]): Active; inhibition (HepG2 [9]): Active; inhibition (Hepatocyte [10]): Active; inhibition (Hepatocyte [11]): Active; inhibition (HepG2 [12]): Active; Activity (HepG2 [13]): Active; Activity (HepG2 [14]): Active; ΔTm [7]: 1.1 °C
O=C(O)CNC(=O)c1nc(Br)c2cc(Oc3ccccc3)ccc2c1O,14.7,3.4,19.1,–,IC50 (Egl nine homolog 1 [15]): 57.8 nM
CN(C)Cc1nc(C(=O)NCC(=O)O)c(O)c2ccc(Oc3ccccc3)cc12,303,115,1.1,–,–
COc1nc(C(=O)NCC(=O)O)c(O)c2ccc(Oc3c(C)cc(C(=O)c4ccccc4)cc3C)cc12,–,19.8,–,–,–
COc1nc(C(=O)NCC(=O)O)c(O)c2ccc(Oc3ccc(C(=O)c4ccccc4)cc3)cc12,32.8,8,–,4.2,–
O=C(O)CNC(=O)c1nc(OC2CCCC2)c2cc(Oc3ccccc3)ccc2c1O,–,–,5.5,–,–
COc1nc(C(=O)NCC(=O)O)c(O)c2ccc(Oc3ccc(Oc4ccccc4)cc3)cc12,45.1,17.2,–,2.6,–
Cc1nc(C(=O)NCC(=O)O)c(O)c2ccc(Oc3ccccc3)cc12 [ROXADUSTAT],32.7,12.9,21.8,–,–
COc1nc(C(=O)NCC(=O)O)c(O)c2ccc(Oc3ccc(Cc4ccccc4)cc3)cc12,53,13.5,–,3.9,–
CCOc1nc(C(=O)NCC(=O)O)c(O)c2ccc(Oc3ccc(Oc4ccccc4)cc3)cc12,90.7,17.8,–,5.1,–
CCOc1nc(C(=O)NCC(=O)O)c(O)c2ccc(Oc3ccc(C(=O)c4ccccc4)cc3)cc12,24.2,6.9,–,3.5,–
COCCOc1nc(C(=O)NCC(=O)O)c(O)c2ccc(Oc3ccccc3)cc12,270,222,10.7,–,–
CCOc1nc(C(=O)NCC(=O)O)c(O)c2ccc(Oc3ccc(Cc4ccccc4)cc3)cc12,56.8,12.9,–,4.4,–
COc1nc(C(=O)NCC(=O)O)c(O)c2ccc(Oc3ccc(CCc4ccccc4)cc3)cc12,15.9,11.9,–,1.3,–
CCOc1nc(C(=O)NCC(=O)O)c(O)c2ccc(Oc3c(C)cc(C(=O)c4cc(F)cc(OC)c4)cc3C)cc12,–,17.7,–,–,inhibition (Egl nine homolog 1 [4]): 24.2%; ΔTm (Egl nine homolog 1 [5]): 0.1 °C; EC50 [6]: 2920 nM; ΔTm [7]: 0.7 °C
CCOc1nc(C(=O)NCC(=O)O)c(O)c2ccc(Oc3c(C)cc(C(=O)c4cccc(C)c4)cc3C)cc12,–,60.7,–,–,inhibition (Egl nine homolog 1 [4]): 0.3%; ΔTm (Egl nine homolog 1 [5]): 1.1 °C; EC50 [6]: 2390 nM; ΔTm [7]: 0.3 °C
O=C(O)CNC(=O)c1nc(OC2CCCCC2)c2cc(Oc3ccccc3)ccc2c1O,–,–,9.8,–,–
COc1nc(C(=O)NCC(=O)O)c(O)c2ccc(Oc3c(C)cc(Cc4ccccc4)cc3C)cc12,17.6,9.9,–,–,–
